{
  "source": "ChEMBL document CHEMBL3885861",
  "about": "“Open TG-GATES”",
  "species": "Rattus norvegicus",
  "assay": "Open TG-GATES - Regimen: Daily Repeat",
  "format": "toxicity, organism-based, Sprague-Dawley",
  "set-up": "regimen Daily Repeat, gender Male, age 6 weeks",
  "settings": "in vivo, po, 1000 mg/kg, route gavage, dose level High; for APTT / Bas / Eos / Fbg / Hb / Ht / Lym / MCH / MCHC / MCV / Mono / Neu / PT / Plat / RBC / Ret / WBC: tissue Blood",
  "key": {"[1]": {"settings": "72 h, tissue Kidney, time 3 day"}, "[2]": {"settings": "72 h, tissue Plasma, time 3 day"}},
  "data": [
    {"smiles": "CN/C(=N/CCSCc1nc[nH]c1C)NC#N", "note": "[CIMETIDINE]", "values": [
      {"measurement": "TERMINAL_BW", "setting": "72 h, time 3 day", "value": 228.7, "unit": "g"},
      {"measurement": "APTT", "setting": "72 h, time 3 day", "value": 18.9, "unit": "s"},
      {"measurement": "Bas", "setting": "72 h, time 3 day", "value": 0, "unit": "%"},
      {"measurement": "Eos", "setting": "72 h, time 3 day", "value": 1, "unit": "%"},
      {"measurement": "Fbg", "setting": "72 h, time 3 day", "value": 228.6, "unit": "mg/dL"},
      {"measurement": "Hb", "setting": "72 h, time 3 day", "value": 13.1, "unit": "g/dL"},
      {"measurement": "Ht", "setting": "72 h, time 3 day", "value": 38.7, "unit": "%"},
      {"measurement": "Lym", "setting": "72 h, time 3 day", "value": 80.8, "unit": "%"},
      {"measurement": "MCH", "setting": "72 h, time 3 day", "value": 21.1, "unit": "pg"},
      {"measurement": "MCHC", "setting": "72 h, time 3 day", "value": 33.8, "unit": "%"},
      {"measurement": "MCV", "setting": "72 h, time 3 day", "value": 62.3, "unit": "fL"},
      {"measurement": "Mono", "setting": "72 h, time 3 day", "value": 2.6, "unit": "%"},
      {"measurement": "Neu", "setting": "72 h, time 3 day", "value": 14.8, "unit": "%"},
      {"measurement": "PT", "setting": "72 h, time 3 day", "value": 12.7, "unit": "s"},
      {"measurement": "Plat", "setting": "72 h, time 3 day", "value": 135, "unit": "x10_4/uL"},
      {"measurement": "RBC", "setting": "72 h, time 3 day", "value": 620.4, "unit": "x10_4/ul"},
      {"measurement": "Ret", "setting": "72 h, time 3 day", "value": 5.4, "unit": "%"},
      {"measurement": "WBC", "setting": "72 h, time 3 day", "value": 96.4, "unit": "x10_2/uL"},
      {"measurement": "KIDNEY_L", "setting": "[1]", "value": 1, "unit": "g"},
      {"measurement": "KIDNEY_R", "setting": "[1]", "value": 1, "unit": "g"},
      {"measurement": "KIDNEY_TOTAL", "setting": "[1]", "value": 2, "unit": "g"},
      {"measurement": "LIVER", "setting": "72 h, tissue Liver, time 3 day", "value": 11.5, "unit": "g"},
      {"measurement": "A/G", "setting": "[2]", "value": 1.6},
      {"measurement": "ALP", "setting": "[2]", "value": 1004, "unit": "IU/L"},
      {"measurement": "ALT", "setting": "[2]", "value": 40, "unit": "IU/L"},
      {"measurement": "AST", "setting": "[2]", "value": 74, "unit": "IU/L"},
      {"measurement": "BUN", "setting": "[2]", "value": 16.2, "unit": "mg/dL"},
      {"measurement": "CRE", "setting": "[2]", "value": 0.4, "unit": "mg/dL"},
      {"measurement": "Ca", "setting": "[2]", "value": 11, "unit": "mg/dL"},
      {"measurement": "Cl", "setting": "[2]", "value": 102.8, "unit": "meq/L"},
      {"measurement": "DBIL", "setting": "[2]", "value": 0.1, "unit": "mg/dL"},
      {"measurement": "GLC", "setting": "[2]", "value": 201.6, "unit": "mg/dL"},
      {"measurement": "IP", "setting": "[2]", "value": 7, "unit": "mg/dL"},
      {"measurement": "K", "setting": "[2]", "value": 3.8, "unit": "meq/L"},
      {"measurement": "LDH", "setting": "[2]", "value": 190.8, "unit": "IU/L"},
      {"measurement": "Na", "setting": "[2]", "value": 140.8, "unit": "meq/L"},
      {"measurement": "PL", "setting": "[2]", "value": 156.6, "unit": "mg/dL"},
      {"measurement": "RALB", "setting": "[2]", "value": 3.4, "unit": "g/dL"},
      {"measurement": "TBIL", "setting": "[2]", "value": 0.2, "unit": "mg/dL"},
      {"measurement": "TC", "setting": "[2]", "value": 79.8, "unit": "mg/dL"},
      {"measurement": "TG", "setting": "[2]", "value": 118.6, "unit": "mg/dL"},
      {"measurement": "TP", "setting": "[2]", "value": 5.5, "unit": "g/dL"},
      {"measurement": "gamma-GTP", "setting": "[2]", "value": 1.2, "unit": "IU/L"},
      {"measurement": "TERMINAL_BW", "setting": "[…], time 7 day", "value": 263.6, "unit": "g"},
      {"measurement": "TERMINAL_BW", "setting": "[…], time 14 day", "value": 302.5, "unit": "g"},
      {"measurement": "TERMINAL_BW", "setting": "[…], time 28 day", "value": 396.8, "unit": "g"},
      {"measurement": "APTT", "setting": "[…], time 7 day", "value": 16.9, "unit": "s"},
      {"measurement": "Bas", "setting": "[…], time 7 day", "value": 0, "unit": "%"},
      {"measurement": "Eos", "setting": "[…], time 7 day", "value": 1, "unit": "%"},
      {"measurement": "Fbg", "setting": "[…], time 7 day", "value": 235.6, "unit": "mg/dL"},
      {"measurement": "Hb", "setting": "[…], time 7 day", "value": 13.6, "unit": "g/dL"},
      {"measurement": "Ht", "setting": "[…], time 7 day", "value": 40.7, "unit": "%"},
      {"measurement": "Lym", "setting": "[…], time 7 day", "value": 81, "unit": "%"},
      {"measurement": "MCH", "setting": "[…], time 7 day", "value": 21.1, "unit": "pg"},
      {"measurement": "MCHC", "setting": "[…], time 7 day", "value": 33.5, "unit": "%"},
      {"measurement": "MCV", "setting": "[…], time 7 day", "value": 62.9, "unit": "fL"},
      {"measurement": "Mono", "setting": "[…], time 7 day", "value": 2.6, "unit": "%"},
      {"measurement": "Neu", "setting": "[…], time 7 day", "value": 14.4, "unit": "%"},
      {"measurement": "PT", "setting": "[…], time 7 day", "value": 12.6, "unit": "s"},
      {"measurement": "Plat", "setting": "[…], time 7 day", "value": 121.2, "unit": "x10_4/uL"},
      {"measurement": "RBC", "setting": "[…], time 7 day", "value": 646.4, "unit": "x10_4/ul"},
      {"measurement": "Ret", "setting": "[…], time 7 day", "value": 5, "unit": "%"},
      {"measurement": "WBC", "setting": "[…], time 7 day", "value": 94.8, "unit": "x10_2/uL"},
      {"measurement": "APTT", "setting": "[…], time 14 day", "value": 20.1, "unit": "s"},
      {"measurement": "Bas", "setting": "[…], time 14 day", "value": 0, "unit": "%"},
      {"measurement": "Eos", "setting": "[…], time 14 day", "value": 1, "unit": "%"},
      {"measurement": "Fbg", "setting": "[…], time 14 day", "value": 225.8, "unit": "mg/dL"},
      {"measurement": "Hb", "setting": "[…], time 14 day", "value": 14.2, "unit": "g/dL"},
      {"measurement": "Ht", "setting": "[…], time 14 day", "value": 43.3, "unit": "%"},
      {"measurement": "Lym", "setting": "[…], time 14 day", "value": 80.8, "unit": "%"},
      {"measurement": "MCH", "setting": "[…], time 14 day", "value": 19.5, "unit": "pg"},
      {"measurement": "MCHC", "setting": "[…], time 14 day", "value": 32.6, "unit": "%"},
      {"measurement": "MCV", "setting": "[…], time 14 day", "value": 59.7, "unit": "fL"},
      {"measurement": "Mono", "setting": "[…], time 14 day", "value": 2.2, "unit": "%"},
      {"measurement": "Neu", "setting": "[…], time 14 day", "value": 15.4, "unit": "%"},
      {"measurement": "PT", "setting": "[…], time 14 day", "value": 12.9, "unit": "s"},
      {"measurement": "Plat", "setting": "[…], time 14 day", "value": 128, "unit": "x10_4/uL"},
      {"measurement": "RBC", "setting": "[…], time 14 day", "value": 726.4, "unit": "x10_4/ul"},
      {"measurement": "Ret", "setting": "[…], time 14 day", "value": 4.3, "unit": "%"},
      {"measurement": "WBC", "setting": "[…], time 14 day", "value": 110.4, "unit": "x10_2/uL"},
      {"measurement": "APTT", "setting": "[…], time 28 day", "value": 19.4, "unit": "s"},
      {"measurement": "Bas", "setting": "[…], time 28 day", "value": 0, "unit": "%"},
      {"measurement": "Eos", "setting": "[…], time 28 day", "value": 1.6, "unit": "%"},
      {"measurement": "Fbg", "setting": "[…], time 28 day", "value": 216.2, "unit": "mg/dL"},
      {"measurement": "Hb", "setting": "[…], time 28 day", "value": 14.9, "unit": "g/dL"},
      {"measurement": "Ht", "setting": "[…], time 28 day", "value": 43.2, "unit": "%"}
    ]}
  ]
}
